A short description of series [1]: Particle size distribution by Malvern laser diffraction (Mastersizer S). Type of series: physicochemical. Particulars: for D(0.9), PSD by Malvern / d(0.1), PSD by Malvern / d(0.5), PSD by Malvern: Modified Pilot Scale, 2.5 kg batch. How it is done: The particle size distributions were measured by Malvern Laser Diffraction, using the Mastersizer S model. Laser diffraction relies on the fact that diffraction angle of light is inversely proportional to particle size. Properties of particles are measured and interpreted as measurements of a sphere (a sphere being the only shape that can be described by one unique number). In addition, laser diffraction calculates a particle size distribution based around volume terms, thus eliminating particle count from the determination of particle size. The Mastersizer S model measures particles using a single technique and a single range setting.
D(0.1) is the particle size, in microns, below which 10% by volume distribution of the population is found. D(0.5) is the particle size, in microns, below which 50% by volume distribution of the population is found. D(0.9) is the particle size, in microns, below which 90% by volume distribution of the population is found.

For series [2] the following is noted: prior art U.S. Pat. No. 7,884,208; cited from earlier work.
The conditions of series [3]: prior art U.S. Pat. No. 7,884,208, cited from earlier work.
In series [4] the test system is acute experimental autoimmune encephalomyelitis (aEAE) model. Particulars: U.S. Pat. No. 6,077,851; cited from earlier work.
[5] abbreviates: Production scale crystallization.
Setting [6] is: Laboratory scale crystallization, 25 g crude.
Setting [7] is: starting material of pilot scale process.

Molecules are shown by their SMILES. Like-named read-outs stand apart in the source and are kept apart here.

For the compound `CCN(C(=O)c1c([O-])c2c(Cl)cccc2n(C)c1=O)c1ccccc1.[Na+]` [Batch C], in series [1] (setting [5]), the “PSD D(0.1)” value was 4.1 μm, the “PSD D(0.5)” value stood at 14.0 μm and the “PSD D(0.9)” value is recorded as 32.0 μm.
In the same order, the values of `CCN(C(=O)c1c([O-])c2c(Cl)cccc2n(C)c1=O)c1ccccc1.[Na+]` [Batch E] are 2.5 μm, 9.5 μm and 21.0 μm.
On to `CCN(C(=O)c1c([O-])c2c(Cl)cccc2n(C)c1=O)c1ccccc1.[Na+]` [Example 13 of U.S. Pat. No. 7,884,208], for which, in series [2], the “Tapped Density (in words)” value is on record as “high”.
For `CCN(C(=O)c1c([O-])c2c(Cl)cccc2n(C)c1=O)c1ccccc1.[Na+]` [Example 14 of U.S. Pat. No. 7,884,208], in series [2], the “Tapped Density (in words)” value is on record as “undesired”. Further, in series [3], the “size of 10% or more of the total amount by volume of the particles” value is reported as “less than 5 microns”.
As to `CCN(C(=O)c1c([O-])c2c(Cl)cccc2n(C)c1=O)c1ccccc1.[Na+]` [Example 15 from U.S. Pat. No. 7,884,208], in series [3] (Laboratory Scale 25 g batch), the “D(0.9), PSD by Malvern” value is 51.8 um; the “d(0.1), PSD by Malvern” value was 6.1 um; the “d(0.5), PSD by Malvern” value was 21.2 um.
Turning to `CCN(C(=O)c1c([O-])c2c(Cl)cccc2n(C)c1=O)c1ccccc1.[Na+]` [Laboratory Scale Batch A], the “PSD D(0.1)” value in series [1] (setting [6]) stood at 2.3 μm.
Turning to `CCN(C(=O)c1c([O-])c2c(Cl)cccc2n(C)c1=O)c1ccccc1.[Na+]` [Laboratory Scale Batch B], the “PSD D(0.1)” value in series [1] (setting [6]) came out at 2.6 μm.
Regarding `CCN(C(=O)c1c(O)c2c(Cl)cccc2n(C)c1=O)c1ccccc1` [Laquinimod, N-ethyl-N-phenyl-1,2,-dihydro-4-hydroxy-5-chloro-1-methyl-2-oxoquinoline-3-carboxamide], the “effectiveness in aEAE model” value in series [4] was “effective”.
As to `CCN(C(=O)c1c([O-])c2c(Cl)cccc2n(C)c1=O)c1ccccc1.[Na+]` [Pilot Scale Batch A], in series [1], the “D(0.9), PSD by Malvern” value amounted to 33.8 um; the “d(0.1), PSD by Malvern” value is 3.3 um; the “d(0.5), PSD by Malvern” value came out at 12.9 um.
In the same order, the values of `CCN(C(=O)c1c([O-])c2c(Cl)cccc2n(C)c1=O)c1ccccc1.[Na+]` [Pilot Scale Batch B] are 33.9 um, 4.1 um and 13.5 um.
On to `CCN(C(=O)c1c([O-])c2c(Cl)cccc2n(C)c1=O)c1ccccc1.[Na+]` [crude laquinimod sodium], for which, in series [1] (setting [7]), the “d(0.1)” value was 1-2 μ, the “d(0.5)” value is 5-11 μ and the “d(0.9)” value is 20-35 μ.

The values are drawn from US9233927B2 (TEVA PHARMACEUTICAL INDUSTRIES, LTD., priority 2013, dated 2016).
